28 compounds from US20170334899A1, “AMINO-SUBSTITUTED ISOTHIAZOLES” (Bayer Pharma Aktiengesellschaft, priority 2014, published 2017) can be followed below.

This assay deals with T1, CDK2/CycE (Homo sapiens, UniProt P24941).
T1 construct: GST; purchased ProQinase GmbH (Freiburg, Germany); host or cells: insect cells (Sf9)
Briefly: CDK2/CycE kinase assay (TR-FRET). The conditions noted are these: avg, read-out: CDK2 avg (IC50 [mol/l]). It is filed as biochemical. A digest of the protocol: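 GST-tagged human CDK2 and CycE from Sf9 cells, preincubated 15 min with compound, then 25 min at 22° C. with 10 μM ATP and 0.75 μM biotinylated Rb-derived peptide (final). Phospho-substrate read by TR-FRET (anti-pRB pSer807/pSer811, Eu anti-mouse IgG, streptavidin-XL665), 665/620 nm ratio, normalised to no-inhibitor and no-enzyme controls.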
(In general: TR-FRET usually uses a lanthanide donor and a delayed reading to cut background.)
As for `Cc1nsc(Nc2cnc(C(F)(F)F)cn2)c1C(=O)Nc1ccc(OCCNCC(F)(F)F)nc1` [Example 322, 3-methyl-N-(6-{2-[(2,2,2-trifluoroethyl)amino]ethoxy}pyridin-3-yl)-5-{[5-(trifluoromethyl)pyrazin-2-yl]amino}-1,2-thiazole-4-carboxamide], the IC50 was no less than 20 µM. For the compound `Cc1nsc(Nc2cnc(C(F)(F)F)cn2)c1C(=O)Nc1ccc(N(C)C)c(OCCCN(C)CCC(F)(F)F)c1` [Example 300, N-[4-(dimethylamino)-3-{3-[methyl(3,3,3-trifluoropropyl)amino]propoxy}phenyl]-3-methyl-5-{[5-(trifluoromethyl)pyrazin-2-yl]amino}-1,2-thiazole-4-carboxamide], the IC50 is greater than 20 µM. For `CC(=O)N1CCC(Oc2ccc(NC(=O)c3c(C)nsc3Nc3cnc4ccccc4n3)cn2)CC1` [Example 22, N-{6-[(1-acetylpiperidin-4-yl)oxy]pyridin-3-yl}-3-methyl-5-(quinoxalin-2-ylamino)-1,2-thiazole-4-carboxamide], the IC50 is no less than 20 µM. As for `Cc1nsc(Nc2cnc3ccccc3n2)c1C(=O)Nc1cccc(NS(=O)(=O)C2CCN(C(=O)OC(C)(C)C)CC2)c1` [Example 258, tert-butyl 4-{[3-({[3-methyl-5-(quinoxalin-2-ylamino)-1,2-thiazol-4-yl]carbonyl}amino)phenyl]sulfamoyl} piperidine-1-carboxylate], the IC50 is greater than 20 µM. In the case of `Cc1nsc(Nc2cnc3ccccc3n2)c1C(=O)Nc1ccc(OC2CCN(CC(F)(F)F)CC2)nc1` [Example 21, 3-Methyl-5-(quinoxalin-2-ylamino)-N-(6-{[1-(2,2,2-trifluoroethyl)piperidin-4-yl]oxy}-pyridin-3-yl)-1,2-thiazole-4-carboxamide] it was no less than 20 µM; in that of `CCNC(=O)c1cccc(NC(=O)c2c(C)nsc2Nc2ccc(C#N)cn2)c1` [Example 252, 5-[(5-cyanopyridin-2-yl)amino]-N-[3-(ethylcarbamoyl)phenyl]-3-methyl-1,2-thiazole-4-carboxamide], greater than 20 µM. Take `Cc1nsc(Nc2cnc3ccccc3n2)c1C(=O)Nc1cccc(C(=O)NC2CC2)c1` [Example 249, N-[3-(cyclopropylcarbamoyl)phenyl]-3-methyl-5-(quinoxalin-2-ylamino)-1,2-thiazole-4-carboxamide]: the IC50 was greater than 20 µM.

On to `Cc1nsc(Nc2cnc3ccccc3n2)c1C(=O)Nc1cccc(NS(=O)(=O)C2CN(CCC(F)(F)F)C2)c1` [Example 288, 3-methyl-5-(quinoxalin-2-ylamino)-N-[3-({[1-(3,3,3-trifluoropropyl)azetidin-3-yl]sulfonyl}amino)phenyl]-1,2-thiazole-4-carboxamide], for which the IC50 is greater than 20 µM. Turning to `Cc1nsc(Nc2cnc(C(F)(F)F)cn2)c1C(=O)Nc1ccc(OCCCNCC(F)F)nc1` [Example 293, N-(6-{3-[(2,2-difluoroethyl)amino]propoxy}pyridin-3-yl)-3-methyl-5-{[5-(trifluoromethyl)pyrazin-2-yl]amino}-1,2-thiazole-4-carboxamide], the IC50 is greater than 20 µM. Take `Cc1nsc(Nc2cnc(C(F)(F)F)cn2)c1C(=O)Nc1ccc(C(=O)NC2CN(CC(F)(F)F)C2)cc1` [Example 270, 3-methyl-N-(4-{[1-(2,2,2-trifluoroethyl)azetidin-3-yl]carbamoyl}phenyl)-5-{[5-(trifluoromethyl)pyrazin-2-yl]amino}-1,2-thiazole-4-carboxamide]: the IC50 is greater than 20 µM. Then `Cc1nsc(Nc2cnc(C(F)(F)F)cn2)c1C(=O)Nc1ccc(F)c(OCCCN(C)CC(F)F)c1` [Example 301, N-(3-{3-[(2,2-difluoroethyl)(methyl)amino]propoxy}-4-fluorophenyl)-3-methyl-5-{[5-(trifluoromethyl)pyrazin-2-yl]amino}-1,2-thiazole-4-carboxamide], with greater than 20 µM; and `Cc1nsc(Nc2cnc(C(F)(F)F)cn2)c1C(=O)Nc1ccc(F)c(OCCCN(C)CC(F)(F)F)c1` [Example 302, N-(4-fluoro-3-{3-[methyl(2,2,2-trifluoroethyl)amino]propoxy}phenyl)-3-methyl-5-{[5-(trifluoromethyl)pyrazin-2-yl]amino}-1,2-thiazole-4-carboxamide], with greater than 20 µM; and `COC(=O)CCCc1ccc(NC(=O)c2c(C)nsc2Nc2cc(C#N)ccn2)cc1` [Example 256, methyl 4-{4-[({5-[(4-cyanopyridin-2-yl)amino]-3-methyl-1,2-thiazol-4-yl}carbonyl)amino]phenyl}butanoate], with greater than 20 µM. With `Cc1nsc(Nc2cnc(C(F)(F)F)cn2)c1C(=O)Nc1ccc(OCCCNCCC(F)(F)F)nc1` [Example 294, 3-methyl-5-{[5-(trifluoromethyl)pyrazin-2-yl]amino}-N-(6-{3-[(3,3,3-trifluoropropyl)amino]propoxy}pyridin-3-yl)-1,2-thiazole-4-carboxamide], the IC50 was greater than 20 µM. Then `Cc1nsc(Nc2cnc(C(F)(F)F)cn2)c1C(=O)Nc1ccc(OCCCO)nc1` [Example 279, N-[6-(3-hydroxypropoxy)pyridin-3-yl]-3-methyl-5-{[5-(trifluoromethyl)pyrazin-2-yl]amino}-1,2-thiazole-4-carboxamide], with greater than 20 µM; and `Cc1nsc(Nc2cnc(C(F)(F)F)cn2)c1C(=O)Nc1ccc(OC2CCN(CC(F)F)C2)nc1` (stereo not shown) [Example 296, N-(6-{[1-(2,2-difluoroethyl)pyrrolidin-3-yl]oxy}pyridin-3-yl)-3-methyl-5-{[5-(trifluoromethyl)pyrazin-2-yl]amino}-1,2-thiazole-4-carboxamide], with greater than 20 µM; and `CCN1CCC(Oc2ccc(NC(=O)c3c(C)nsc3Nc3cc(C#N)ccn3)cn2)CC1` [Example 26, 5-[(4-Cyanopyridin-2-yl)amino]-N-{6-[(1-ethylpiperidin-4-yl)oxy]pyridin-3-yl}-3-methyl-1,2-thiazole-4-carboxamide], with no less than 20 µM. On to `Cc1nsc(Nc2cnc3ccccc3n2)c1C(=O)Nc1ccc(N2CCN(C(=O)OC(C)(C)C)CC2)nc1` [Example 248, tert-butyl 4-[5-({[3-methyl-5-(quinoxalin-2-ylamino)-1,2-thiazol-4-yl]carbonyl}amino)pyridin-2-yl]piperazine-1-carboxylate], for which the IC50 is greater than 20 µM.

Consider `Cc1nsc(Nc2cnc3ccccc3n2)c1C(=O)Nc1cccc(NS(=O)(=O)C2CCN(CC(F)(F)F)CC2)c1` [Example 281, 3-methyl-5-(quinoxalin-2-ylamino)-N-[3-({[1-(2,2,2-trifluoroethyl)piperidin-4-yl]sulfonyl}amino)phenyl]-1,2-thiazole-4-carboxamide], for which the IC50 was greater than 20 µM.

Consider `Cc1nsc(Nc2cnc(C(F)(F)F)cn2)c1C(=O)Nc1ccc(F)c(OCCCN(C)CCC(F)(F)F)c1` [Example 303, N-(4-fluoro-3-{3-[methyl(3,3,3-trifluoropropyl)amino]propoxy}phenyl)-3-methyl-5-{[5-(trifluoromethyl)pyrazin-2-yl]amino}-1,2-thiazole-4-carboxamide], for which the IC50 is no less than 20 µM. Turning to `Cc1nsc(Nc2cnc3ccccc3n2)c1C(=O)Nc1cccc(C(=O)NC(C)C)c1` [Example 253, N-[3-(isopropylcarbamoyl)phenyl]-3-methyl-5-(quinoxalin-2-ylamino)-1,2-thiazole-4-carboxamide], the IC50 was greater than 20 µM. On to `Cc1nsc(Nc2cnc(C(F)(F)F)cn2)c1C(=O)Nc1ccc(F)c(OC2CCN(CC(F)(F)F)C2)c1` (stereo not shown) [Example 315, N-(4-fluoro-3-{[1-(2,2,2-trifluoroethyl)pyrrolidin-3-yl]oxy}phenyl)-3-methyl-5-{[5-(trifluoromethyl)pyrazin-2-yl]amino}-1,2-thiazole-4-carboxamide], for which the IC50 is no less than 20 µM. `CCN1CCN(C(=O)c2ccc(NC(=O)c3c(C)nsc3Nc3cncc(C(F)(F)F)n3)cc2)CC1` [Example 275, N-{4-[(4-ethylpiperazin-1-yl)carbonyl]phenyl}-3-methyl-5-{[6-(trifluoromethyl)pyrazin-2-yl]amino}-1,2-thiazole-4-carboxamide]: the IC50 was 8.4 µM. Take `Cc1nsc(Nc2cncc(C(F)(F)F)n2)c1C(=O)Nc1ccc(C(=O)N2CCN(CC(F)(F)F)CC2)cc1` [Example 272, 3-methyl-N-(4-{[4-(2,2,2-trifluoroethyl)piperazin-1-yl]carbonyl}phenyl)-5-{[6-(trifluoromethyl)pyrazin-2-yl]amino}-1,2-thiazole-4-carboxamide]: the IC50 is greater than 20 µM. In the case of `Cc1nsc(Nc2cnc3ccccc3n2)c1C(=O)Nc1cccc(NS(=O)(=O)C2CCN(CC(F)F)CC2)c1` [Example 282, N-[3-({[1-(2,2-difluoroethyl)piperidin-4-yl]sulfonyl}amino)phenyl]-3-methyl-5-(quinoxalin-2-ylamino)-1,2-thiazole-4-carboxamide] it was greater than 20 µM; in that of `Cc1nsc(Nc2ccc(C#N)cn2)c1C(=O)Nc1cccc(C(=O)NC2CC2)c1` [Example 250, 5-[(5-cyanopyridin-2-yl)amino]-N-[3-(cyclopropylcarbamoyl)phenyl]-3-methyl-1,2-thiazole-4-carboxamide], greater than 20 µM.

In the case of `Cc1nsc(Nc2cncc(C(F)(F)F)n2)c1C(=O)Nc1ccc(C(=O)N2CCN(CCF)CC2)cc1` [Example 274, N-(4-{[4-(2-fluoroethyl)piperazin-1-yl]carbonyl}phenyl)-3-methyl-5-{[6-(trifluoromethyl)pyrazin-2-yl]amino}-1,2-thiazole-4-carboxamide], the IC50 worked out at 5.4 µM. For `Cc1nsc(Nc2cnc(C(F)(F)F)cn2)c1C(=O)Nc1ccc(OC2CCN(CCF)C2)nc1` (stereo not shown) [Example 295, N-(6-{[1-(2-fluoroethyl)pyrrolidin-3-yl]oxy}pyridin-3-yl)-3-methyl-5-{[5-(trifluoromethyl)pyrazin-2-yl]amino}-1,2-thiazole-4-carboxamide], the IC50 was greater than 20 µM.
